One series concerns Enterococcus faecium. In words: Growth response in serum-SAPI medium (CFU/ml). The series is classed as cell-based. The following applies: control 2.1 × 10^5. As for the experimental part: (§1) Bacteria (approximately 50-500 cfu/ml) are inoculated into SAPI minimal medium (6.25 mM NH4NO3, 1.84 mM KH2PO4, 3.35 mM KCl, 1.01 mM MgSO4 and 2.77 mM glucose, pH 7.5) supplemented with 30% (v/v) adult bovine serum (Sigma), and either 1% (v/v) previously made E.coli autoinducer or 50 mM norepinephrine.
(§2) The cultures are grown statically (i.e. without aeration by shaking) for 24 hours at 37° C. in a 5% CO2 incubator.
(§3) It has been shown that certain of these bacteria respond to norepinephrine (NE) and synthesise their own autoinducers, all of which are heat-stable low molecular weight molecules (less than 1000 Da) similar in size to the E. coli autoinducer (Table 4, FIG. 5).

The next series relates to Citrobacter freundii. Nature of the series: Growth response in serum-SAPI medium (CFU/ml). The series is classed as cell-based. To be noted: control 1.9 × 10^6. As for the experimental part: as §1, §2, §3
In the next series the test system is Listeria monocytogenes. Nature of the series: Growth response in serum-SAPI medium (CFU/ml). The following applies: control 2.5 × 10^5. The series is classed as cell-based. As for the experimental part: as §1, §2, §3
The next series concerns Acinetobacter lwoffii. Nature of the series: Growth response in serum-SAPI medium (CFU/ml). The class given is cell-based. To be noted: control 1.0 × 10^4. As for the experimental part: as §1, §2, §3
A further series has as its system Escherichia coli. In words: Growth response in serum-SAPI medium (CFU/ml). To be noted: control 7.5 × 10^4. The series is classed as cell-based. As for the experimental part: as §1, §2, §3
Another series concerns Xanthomonas maltophilia. In words: Growth response in serum-SAPI medium (CFU/ml). The series is classed as cell-based. To be noted: control 1.7 × 10^5. As for the experimental part:
as §1, §2, §3

In a further series the test system is Streptococcus sanguis. Nature of the series: Growth response in serum-SAPI medium (CFU/ml). The series is classed as cell-based. To be noted: control 2.1 × 10^4. As for the experimental part: as §1, §2, §3
For series [1], the system named is Salmonella enterica sv Enteriditis. In words: Growth response in serum-SAPI medium (CFU/ml). The class given is cell-based. To be noted: control 7.5 × 10^5. As for the experimental part:
as §1, §2, §3

The test system of a further series is Staphylococcus albus. Nature of the series: Growth response in serum-SAPI medium (CFU/ml). The class given is cell-based. The following applies: control 1.1 × 10^3. As for the experimental part: as §1, §2, §3
A further series has as its system Enterococcus faecalis. Nature of the series: Growth response in serum-SAPI medium (CFU/ml). The class given is cell-based. The following applies: control 5.0 × 10^5. As for the experimental part:
as §1, §2, §3

A further series relates to Enterobacter agglomerans. In words: Growth response in serum-SAPI medium (CFU/ml). To be noted: control 2.9 × 10^4. The series is classed as cell-based. As for the experimental part:
as §1, §2, §3

A further series concerns Klebsiella oxytoca. In words: Growth response in serum-SAPI medium (CFU/ml). The series is classed as cell-based. The following applies: control 4.2 × 10^4. As for the experimental part:
as §1, §2, §3

For a further series, the system named is Klebsiella pneumoniae. In words: Growth response in serum-SAPI medium (CFU/ml). The series is classed as cell-based. The following applies: control 3.1 × 10^4. As for the experimental part:
as §1, §2, §3

A further series deals with Enterobacter cloacae. In words: Growth response in serum-SAPI medium (CFU/ml). To be noted: control 7.2 × 10^6. The series is classed as cell-based. As for the experimental part:
as §1, §2, §3

Another series concerns Enterobacter sakazaki. In words: Growth response in serum-SAPI medium (CFU/ml). The class given is cell-based. The following applies: control 3.0 × 10^6. As for the experimental part: as §1, §2, §3
The subject of the next series is Serratia marcescens. Nature of the series: Growth response in serum-SAPI medium (CFU/ml). To be noted: control 8.5 × 10^7. The class given is cell-based. As for the experimental part:
as §1, §2, §3

Another series relates to Morganella morganii. Nature of the series: Growth response in serum-SAPI medium (CFU/ml). The series is classed as cell-based. To be noted: control 3.7 × 10^4. As for the experimental part: as §1, §2, §3
Series [2] relates to Streptococcus dysgalactiae. Nature of the series: Growth response in serum-SAPI medium (CFU/ml). The series is classed as cell-based. The following applies: control 2.0 × 10^7. As for the experimental part:
as §1, §2, §3

A further series has as its system Enterobacter aerogenes. Nature of the series: Growth response in serum-SAPI medium (CFU/ml). The series is classed as cell-based. To be noted: control 3.2 × 10^8. As for the experimental part:
as §1, §2, §3

For the next series, the system named is Pseudomonas aeruginosa. Nature of the series: Growth response in serum-SAPI medium (CFU/ml). To be noted: control 3.7 × 10^4. The class given is cell-based. As for the experimental part: as §1, §2, §3
A further series deals with Staphylococcus aureus. In words: Growth response in serum-SAPI medium (CFU/ml). To be noted: control 3.2 × 10^5. The class given is cell-based. As for the experimental part:
as §1, §2, §3

In another series the test system is Proteus mirabilis. Nature of the series: Growth response in serum-SAPI medium (CFU/ml). To be noted: control 1.1 × 10^3. The class given is cell-based. As for the experimental part: as §1, §2, §3
The next series has as its system Yersinia entercolitica. In words: Growth response in serum-SAPI medium (CFU/ml). The class given is cell-based. To be noted: control 4.2 × 10^4. As for the experimental part: as §1, §2, §3
The subject of another series is Hafnia alvei. In words: Growth response in serum-SAPI medium (CFU/ml). The class given is cell-based. The following applies: control 1.2 × 10^4. As for the experimental part:
as §1, §2, §3

For a further series, the system named is bacteria. Nature of the series: Growth stimulation assay (serum assay). The following applies: for Stimulation of growth and autoinducer production in serum assay: equivalent mM concentrations. The series is classed as cell-based.
The conditions of series [3]: cited from earlier work.

The structures appear in SMILES notation.

Turning to `NC[C@H](O)c1ccc(O)c(O)c1` [NE, norepinephrine], the “Response (growth), CFU/ml” value in the series with Enterococcus faecium was 5.6 × 10^6 CFU/ml; with Citrobacter freundii, 3.5 × 10^7 CFU/ml; in the series on Listeria monocytogenes, 3.5 × 10^6 CFU/ml; in the series on Acinetobacter lwoffii it was 2.9 × 10^7 CFU/ml; in the series with Escherichia coli it was 5.9 × 10^8 CFU/ml; in the series on Xanthomonas maltophilia, 2.1 × 10^6 CFU/ml. Also, the “Response (growth), CFU/ml” value with Streptococcus sanguis is 1.1 × 10^4 CFU/ml; in series [1], 1.0 × 10^8 CFU/ml; with Staphylococcus albus it was 1.5 × 10^7 CFU/ml; with Enterococcus faecalis it was 5.5 × 10^6 CFU/ml; with Enterobacter agglomerans it was 6.1 × 10^6 CFU/ml; in the series with Klebsiella oxytoca it was 1.6 × 10^8 CFU/ml. Also, the “Response (growth), CFU/ml” value in the series on Klebsiella pneumoniae is 6.7 × 10^7 CFU/ml; in the series with Enterobacter cloacae it was 1.1 × 10^8 CFU/ml; in the series on Enterobacter sakazaki, 4.1 × 10^7 CFU/ml; with Serratia marcescens, 3.4 × 10^8 CFU/ml; in the series with Morganella morganii it was 1.6 × 10^7 CFU/ml; in [2], 2.4 × 10^6 CFU/ml. Also, the “Response (growth), CFU/ml” value is on record as 5.5 × 10^8 CFU/ml in the series with Enterobacter aerogenes; 2.1 × 10^7 CFU/ml in the series with Pseudomonas aeruginosa; 5.7 × 10^5 CFU/ml in the series on Staphylococcus aureus; 1.0 × 10^7 CFU/ml with Proteus mirabilis; 1.7 × 10^8 CFU/ml in the series on Yersinia entercolitica; 3.7 × 10^8 CFU/ml with Hafnia alvei.

For `CCN(CC)CC.O=C(O)O` [TEAB, triethylammonium bicarbonate], the “Inhibition in the growth stimulation assays” value in the series on bacteria (concentrations up to 20 mM) is reported as “not inhibitory”.

`CC(=O)O` [acetate]: in the series with bacteria, the “Stimulation of growth and autoinducer production in serum assay” value (from here on “Stimulation … in serum assay”) is given as “not”.

Regarding `Cl.N` [ammonium chloride], the “Stimulation … in serum assay” value in the series on bacteria was “not”.

As to `N.N.O=S(=O)(O)O` [ammonium sulfate], in the series on bacteria, the “Stimulation … in serum assay” value is “can stimulate growth and autoinducer production”.

Turning to `O=C(O)O` [bicarbonate], in the series on bacteria, the “Stimulation … in serum assay” value was “not”.

With `O=C(N[C@H]1COC(=O)[C@@H](NC(=O)c2cccc(O)c2O)COC(=O)[C@@H](NC(=O)c2cccc(O)c2O)COC1=O)c1cccc(O)c1O` [enterochelin], the “Solubility in organic solvents” value in series [3] is listed as “soluble in organic solvents”.

Turning to `O=CO` [formate], the “Stimulation … in serum assay” value in the series on bacteria is reported as “not”.

Source of the values: patent publication US6649398B2, “Method for inducing bacterial growth using autoinducers” (University of Leicester, priority 1997, dated 2003).
